The target in series [1] is T1, unphosphorylated VEGF-R2Δ50 (FLVK) (Homo sapiens, UniProt P35968, DEL940-989/E990V).
T1 construct: VEGF-R2Δ50 contains residues 806–939 and 990–1171; made in house; host or cells: baculovirus/insect cell system
Put plainly: VEGF-R2 coupled spectrophotometric assay, unphosphorylated VEGF-R2Δ50 (FLVK). The format is biochemical. To be noted: unphosphorylated VEGF-R2Δ50; for inhibition at 0.05 µM: 50 nM compound, read-out: FLVK (% inh @ 50 nM). A digest of the protocol:
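Baculovirus-expressed human VEGF-R2Δ50 (kinase insert partly deleted, E990V), unphosphorylated form; ADP production coupled via PK/LDH to NADH oxidation, read at 340 nm. 20 mM poly(E4Y1), 3 mM ATP, 60 mM MgCl2, 2 mM MnCl2, 200 mM HEPES pH 7.5; 5–40 nM enzyme. Ki from Morrison tight-binding fit.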

The next series in a line: Mouse PK assay. As to conditions: 50 mg/kg, B6 female mice, plasma; for AUC / Cmax: mouse, po. It is filed as in vivo. The method, then: The pharmacokinetics (e.g., absorption and elimination) of drugs in mice were analyzed using the following experiment. Test compounds were formulated as a suspension in a 30:70 (PEG 400:acidified H2O) vehicle. This solution was administered orally (p.o.) and intraperitoneally (i.p.) at 50 mg/kg to two distinct groups (n=4) of B6 female mice. Blood samples were collected via an orbital bleed at time points: 0 hour (pre-dose), 0.5 hr, 1.0 hr, 2.0 hr, and 4.0 hr post dose. Plasma was obtained from each sample by centrifugation at 2500 rpm for 5 min. Test compound was extracted from the plasma by an organic protein precipitation method. For each time bleed, 50 μL of plasma was combined with 1.0 mL of acetonitrile, vortexed for 2 min. and then spun at 4000 rpm for 15 min. to precipitate the protein and extract out the test compound. Next, the acetonitrile supernatant (the extract containing test compound) was poured into new test tubes and evaporated on a hot plate (25° C.) under a steam of N2 gas. To each tube containing the dried test compound extract, 125 μL of mobile phase (60:40, 0.025 M NH4H2PO4+2.5 mL/L TEA:acetonitrile) was added. The test compound was resuspended in the mobile phase by vortexing and more protein was removed by centrifugation at 4000 rpm for 5 min. Each sample was poured into an HPLC vial for test compound analysis on an Hewlett Packard 1100 series HPLC with UV detection. From each sample, 95 μL was injected onto a Phenomenex-Prodigy reverse phase C-18, 150×3.2 mm column and eluted with a 45–50% acetonitrile gradient run over 10 min. Test-compound plasma concentrations (μg/mL) were determined by a comparison to standard curve (peak area vs. conc. μg/mL) using known concentrations of test compound extracted from plasma samples in the manner described above. Along with the standards and unknowns, three groups (n=4) of quality controls (0.25 μg/mL, 1.5 μg/mL, and 7.5 μg/mL) were run to insure the consistency of the analysis. […] The quantitated test samples were plotted for visual display using Kalidagraph software and their pharmacokinetic parameters were determined using WIN NONLIN software.

As usually defined, the Ki is a measure of affinity in units of concentration, obtained from inhibition or displacement. By AUC is commonly meant the area under the concentration-time curve, a measure of exposure. Read a low AUC as less exposure. Broadly, the Cmax is the maximum level reached in the sampled fluid or tissue.

T1 sequence (P35968 with tags, fused parts or gaps DEL940-989/E990V limits assumed): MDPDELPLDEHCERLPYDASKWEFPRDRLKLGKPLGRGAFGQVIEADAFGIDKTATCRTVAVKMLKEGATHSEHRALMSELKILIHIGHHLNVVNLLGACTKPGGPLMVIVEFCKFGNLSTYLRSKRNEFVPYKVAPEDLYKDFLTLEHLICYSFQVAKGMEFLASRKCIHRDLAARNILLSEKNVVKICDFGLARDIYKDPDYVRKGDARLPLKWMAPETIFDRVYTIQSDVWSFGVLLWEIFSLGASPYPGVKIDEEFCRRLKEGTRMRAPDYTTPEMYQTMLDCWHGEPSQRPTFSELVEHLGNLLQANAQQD

Consider `CNC(=O)c1c(C)n(C)c2cc(Oc3ccnc4cc(C(=O)N5CC[C@@H](OC)C5)sc34)ccc12` [Example 18, 1,2-dimethyl-6-(2-[3-methoxy-pyrrolidine-1-carbonyl]thieno[3,2-b]pyridin-7-yloxy)-1H-indole-3-carboxylic acid methylamide], for which, in series [1], the inhibition at 0.05 µM was determined as 78% and the Ki was 2.37 nM. In “Mouse PK assay”, the “mouse Cmin, po” value stood at 342 ng/mL; the AUC was found to be 8720 ng·h/mL; the Cmax was 4120 ng/mL.

As to `CNC(=O)c1c(C)sc2cc(Oc3ccnc4cc(C(=O)N5CC[C@@H](OC)C5)sc34)ccc12` [Example 4, 6-(2-[(R)-3-methoxypyrrolidine-1-carbonyl]thieno[3,2-b]pyridin-7-yloxy)-2-methylbenzo[b]thiophene-3-carboxylic acid methylamide], in series [1], the inhibition at 0.05 µM was 88% and the Ki is 2.58 nM. Also, in the series “Mouse PK assay”, the “mouse Cmin, po” value came out at 200 ng/mL; the AUC came out at 7670 ng·h/mL; the Cmax was 2340 ng/mL.

Take `CNC(=O)c1c(C)sc2cc(Oc3ccnc4cc(C(=O)N5CC[C@@H](O)C5)sc34)ccc12` [Example 6, 6-(2-[(R)-3-hydroxypyrrolidine-1-carbonyl]thieno[3,2-b]pyridin-7-yloxy)-2-methylbenzo[b]thiophene-3-carboxylic acid methylamide]: in series [1], the inhibition at 0.05 µM came to 94% and the Ki stood at 0.721 nM. In “Mouse PK assay”, the “mouse Cmin, po” value came out at 20 ng/mL; the AUC is 586 ng·h/mL; the highest level (Cmax) was 355 ng/mL.

For `CNC(=O)c1c(C)sc2cc(Oc3ccnc4cc(C(=O)N5CCC[C@H]5COC)sc34)ccc12` [Example 2, 6-(2-[(S)-2-(methoxymethyl)pyrrolidine-1-carbonyl]thieno[3,2-b]pyridin-7-yloxy)-2-methylbenzo[b]thiophene-3-carboxylic acid methylamide], in series [1], the inhibition at 0.05 µM amounted to 75% and affinity was put at a Ki of 4.14 nM.

With `CCCCNC(=O)c1c(C)n(C)c2cc(Oc3ccnc4cc(-c5nccs5)sc34)ccc12` [Example 62, 1,2-Dimethyl-6-(2-thiazol-2-yl-thieno[3,2-b]pyridin-7-yloxy)-1H-indole-3-carboxylic acid butylamide], in series [1], the inhibition at 0.05 µM was 91% and the Ki was 0.57 nM.

For `CNC(=O)c1c(C)sc2cc(Oc3ccnc4cc(C(=O)N5CCC[C@H]5CO)sc34)ccc12` [Example 3], in series [1], the inhibition at 0.05 µM came out at 59% and the Ki amounted to 0.811 nM. In “Mouse PK assay”, the “mouse Cmin, po” value was found to be 66 ng/mL; the AUC is 2450 ng·h/mL; the Cmax is 956 ng/mL.

Consider `Cc1c(C(=O)NC2CC2)c2ccc(Oc3ccnc4cc(-c5nccn5C)sc34)cc2n1C` [Example 20, 1,2-Dimethyl-6-[2-(1-methyl-1H-imidazol-2-yl)-thieno[3,2-b]pyridin-7-yloxy]-1H-indole-3-carboxylic acid cyclopropylamide], for which, in series [1], the inhibition at 0.05 µM is 99% and the inhibition constant Ki turned out to be 0.082 nM.

In the case of `CNC(=O)c1c(C)n(C)c2cc(Oc3ccnc4cc(C(=O)N5CC[C@@H](O)C5)sc34)ccc12` [Example 19, 1,2-dimethyl-6-(2-[3-hydroxy-pyrrolidine-1-carbonyl]thieno[3,2-b]pyridin-7-yloxy)-1H-indole-3-carboxylic acid methylamide], in series [1], the inhibition at 0.05 µM was 75% and the Ki worked out at 2.63 nM. Also, in “Mouse PK assay”, the “mouse Cmin, po” value was found to be 4 ng/mL; the AUC worked out at 120 ng·h/mL; the peak level (Cmax) was 51 ng/mL.

For the compound `CCCNC(=O)c1c(C)n(C)c2cc(Oc3ccnc4cc(-c5nccn5C)sc34)ccc12` [Example 61, 1,2-Dimethyl-6-[2-(1-methyl-1H-imidazol-2-yl)thieno[3,2-b]pyridin-7-yloxy]-1H-indole-3-carboxylic acid propylamide], in series [1], the inhibition at 0.05 µM is 89%.

With `CNC(=O)c1c(C)oc2cc(Oc3ccnc4cc(C(=O)N5CC[C@@H](OC)C5)sc34)ccc12` [Example 12, 6-(2-[3-methoxypyrrolidine-1-carbonyl]thieno[3,2-b]pyridin-7-yloxy)-2-methylbenzofuran-3-carboxylic acid methylamide], in series [1], the inhibition at 0.05 µM is 100% and affinity was put at a Ki of 0.314 nM. Besides, in “Mouse PK assay”, the “mouse Cmin, po” value is reported as 270 ng/mL; the AUC came to 12000 ng·h/mL; the highest level (Cmax) was 5420 ng/mL.

Consider `CNC(=O)c1c(C)n(C)c2cc(Oc3ccnc4cc(-c5nccn5C)sc34)ccc12` [Example 17, 1,2-dimethyl-6-(2-[1-methyl-1H-imidazol-2-yl]thieno[3,2-b]pyridin-7-yloxy)-1H-indole-3-carboxylic acid methylamide], for which, in series [1], the inhibition at 0.05 µM was 77% and affinity was put at a Ki of 2.77 nM. Besides, in the series “Mouse PK assay”, the “mouse Cmin, po” value was 2334 ng/mL; the AUC was 71600 ng·h/mL; the concentration peaked (Cmax) at 28800 ng/mL.

With `CNC(=O)c1c(C)sc2cc(Oc3ccnc4cc(-c5nccn5C)sc34)ccc12` [Example 1, 2-methyl-6-(2-[1-methyl-1H-imidazol-2-yl]thieno[3,2-b]pyridin-7-yloxy)benzo[b]thiophene-3-carboxylic acid methylamide], in series [1], the inhibition at 0.05 µM is 92% and the Ki is 1.02 nM. Further, in the series “Mouse PK assay”, the “mouse Cmin, po” value turned out to be 2793 ng/mL; the AUC was 183000 ng·h/mL; the Cmax was 125000 ng/mL.

Take `CNC(=O)c1c(C)oc2cc(Oc3ccnc4cc(-c5nccn5C)sc34)ccc12` [Example 13]: in series [1], the inhibition at 0.05 µM was 97% and the Ki turned out to be 0.322 nM. For the same compound, in “Mouse PK assay”, the “mouse Cmin, po” value is reported as 1700 ng/mL; the AUC worked out at 63000 ng·h/mL; the Cmax worked out at 24800 ng/mL.

Values taken from patent US7045528B2, “Benzofused heterozryl amide derivatives of thienopyridines useful as therapeutic agents, pharmaceutical compositions including the same, and methods for their use” (Agouron Pharmaceuticals, Inc., priority 2002, dated 2006).
